Measurements published in US20190105367A1, “ANTIMICROBIAL 4-OXOQUINOLIZINES” (Emergent Product Development Gaithersburg Inc., priority 2011, published 2019).
In brackets after ≈: the same amount, converted by molar mass. Where two headings read alike, the source gives them in different places.

Experiments:
[1] = tested on: A. baumannii NCTC 13301; test: MIC without and with sub-inhibitory polymyxin B (Example 4); type: cell-based, Acinetobacter baumannii
[2] = tested on: Acinetobacter sp. (H064200250); test: as above; type: cell-based
[3] = tested on: A. baumannii A489; test: Preliminary MBC without and with sub-inhibitory polymyxin B (Example 4); type: cell-based, Acinetobacter baumannii; details: Acinetobacter baumannii
[4] = tested on: A. baumannii J2; test: MIC without and with sub-inhibitory polymyxin B (Example 4); type: cell-based, Acinetobacter baumannii; details: for MIC without PB/MIC + PB: A. baumannii J2; for MIC: Acinetobacter baumannii
[5] = tested on: A. baumannii A472; test: as above; type: cell-based, Acinetobacter baumannii; details: for MIC: Acinetobacter baumannii
[6] = tested on: A. baumannii A401; test: as above; type: cell-based, Acinetobacter baumannii; details: A baumannii A 401; ratio, PB 0.06 μg/ml; 1st experiment
[7] = tested on: A. baumannii NCTC 13301; test: as above; type: cell-based, Acinetobacter baumannii; details: +[…] PB, 2nd experiment
[8] = tested on: strains of A. baumannii and one strain of Acinetobacter sp.; test: MIC with sub-inhibitory concentrations (0.25x MIC) of polymyxin B, panel of Acinetobacter strains (Example 4); type: cell-based
[9] = tested on: A. baumannii A14; test: MIC without and with sub-inhibitory polymyxin B (Example 4); type: cell-based, Acinetobacter baumannii; details: A. baumannii A14; +0.06 μg/ml PB; 2nd experiment
[10] = tested on: A. baumannii A387; test: Preliminary MBC without and with sub-inhibitory polymyxin B (Example 4); type: cell-based, Acinetobacter baumannii; details: Acinetobacter baumannii, A387, A. baumannii A387, +0.06 μg/ml PB, 2nd experiment, read-out: MBC
[11] = tested on: A. baumannii A390; test: MIC without and with sub-inhibitory polymyxin B (Example 4); type: cell-based, Acinetobacter baumannii; details: A. baumannii A390; +0.06 μg/ml PB; 2nd experiment
[12] = tested on: A. baumannii A329; test: Preliminary MBC without and with sub-inhibitory polymyxin B (Example 4); type: cell-based, Acinetobacter baumannii; details: Acinetobacter baumannii, A329, A. baumannii A329, +0.06 μg/ml PB, 2nd experiment, read-out: MBC
[13] = tested on: A. baumannii A472; test: as above; type: cell-based, Acinetobacter baumannii; details: Acinetobacter baumannii, A472, A. baumannii A472; +[…] PB; preliminary MBC; 2nd experiment; read-out: MBC
[14] = tested on: A. baumannii ATCC 19606; test: MIC without and with sub-inhibitory polymyxin B (Example 4); type: cell-based, Acinetobacter baumannii; details: A. baumannii ATCC 19606
[15] = tested on: A. baumannii A473; test: as above; type: cell-based, Acinetobacter baumannii; details: A. baumannii A473; +0.06 μg/ml PB; 2nd experiment
[16] = tested on: A. baumannii A387; test: as above; type: cell-based, Acinetobacter baumannii; details: A. baumannii A387
[17] = tested on: A. baumannii A489; test: as above; type: cell-based, Acinetobacter baumannii; details: for MIC without PB/MIC + PB: A. baumannii A489; for MIC: Acinetobacter baumannii
[18] = tested on: A. baumannii A14; test: Preliminary MBC without and with sub-inhibitory polymyxin B (Example 4); type: cell-based, Acinetobacter baumannii; details: A. baumannii A14, +0.06 μg/ml PB, 2nd experiment
Experimental: (§1) The plates were incubated for 18-20 hours at 37° C. The MBC was read as the lowest concentration at which colony growth was ca. 90% less than the positive control (i.e. usually where single colonies or no colonies were observed).

[19] = tested on: A. baumannii NCTC 13301; test: as above; type: cell-based, Acinetobacter baumannii; details: Acinetobacter baumannii, NCTC13301, A. baumannii NCTC 13301; +[…] PB; preliminary MBC; 2nd experiment; read-out: MBC
Experimental: as §1

[20] = tested on: A. baumannii A329; test: MIC without and with sub-inhibitory polymyxin B (Example 4); type: cell-based, Acinetobacter baumannii; details: A. baumannii A329; +0.06 μg/ml PB; 2nd experiment
[21] = tested on: A. baumannii A401; test: Preliminary MBC without and with sub-inhibitory polymyxin B (Example 4); type: cell-based, Acinetobacter baumannii; details: Acinetobacter baumannii, A401, A baumannii A 401, +0.06 μg/ml PB, 2nd experiment, read-out: MBC
[22] = ratio, PB 0.06 μg/ml, 1st experiment

Structure (SMILES): C[C@H]1COc2c(N3CCN(C)CC3)c(F)cc3c(=O)c(C(=O)O)cn1c23 [Levofloxacin, reference compound]
- MIC without PB/MIC + PB ([1]; A. baumannii NCTC 13301, ratio, PB […], 1st experiment): 2
- MIC ([1]; Acinetobacter baumannii, NCTC13301, read-out: MIC +[…] PB): 16 µg/mL (≈ 44.3 µM)
- MIC without PB/MIC + PB ([2]; Acinetobacter spp. H064200250 (OXA51), +[…] PB, 2nd experiment): 2
- MIC without PB/MIC + PB ([2]; Acinetobacter spp. H064200250, ratio, PB […], 1st experiment): 1
- MIC ([2]; Acinetobacter, Acinetobacter spp. H064200250 (OXA51), +[…] PB, 2nd experiment, read-out: MIC): 8 µg/mL (≈ 22.1 µM)
- MBC ([3]; A489, A. baumannii A489, +[…] PB, preliminary MBC, 2nd experiment, read-out: MBC): 4 µg/mL (≈ 11.1 µM)
- MBC ([3]; A489, read-out: MBC +[…] PB): 8 µg/mL (≈ 22.1 µM)
- MIC without PB/MIC + PB ([4]; +[…] PB, 2nd experiment): 8
- MIC without PB/MIC + PB ([4]; ratio, PB […], 1st experiment): 4
- MIC ([4]; J2, A. baumannii J2, +[…] PB, 2nd experiment, read-out: MIC): 4 µg/mL (≈ 11.1 µM)
- MIC ([4]; J2, read-out: MIC +[…] PB, A. baumannii J2, +[…] polymyxin B, 1st experiment): 8 µg/mL (≈ 22.1 µM)
- MIC without PB/MIC + PB ([5]; A. baumannii A472, ratio, PB […], 1st experiment): 4
- MIC ([5]; A472, A. baumannii A472, +[…] PB, 2nd experiment, read-out: MIC): 4 µg/mL (≈ 11.1 µM)
- MIC ([5]; A472, read-out: MIC +[…] PB, A. baumannii A472, +[…] polymyxin B, 1st experiment): 4 µg/mL (≈ 11.1 µM)
- MIC without PB/MIC + PB [6]: 1
- MIC without PB/MIC + PB ([7]; A. baumannii NCTC 13301): 4
- MIC ([7]; Acinetobacter baumannii, NCTC13301, A. baumannii NCTC 13301, read-out: MIC): 8 µg/mL (≈ 22.1 µM)
- Range ratios MIC without PB/MIC with PB Oct. 1, 2008 n = 8 ([8]; 1st experiment): 1-4
- MIC range with PB (0.25x MIC) Oct. 1, 2008 n = 8 ([8]; 1st experiment, […] polymyxin B, ATCC 19606, A329, A390 and A473 not taken): 4 to 32 µg/mL
- Range ratios MIC without PB/MIC with PB Oct. 14, 2008 n = 11 ([8]; 2nd experiment): 0.5-8
- MIC range with PB (0.25x MIC) Oct. 14, 2008 n = 11 ([8]; 2nd experiment, 0.06 μg/ml polymyxin B, all strains except the ATCC strain): 4 to 32 µg/mL
- MIC [9]: 16.00 µg/mL (≈ 44.3 µM)
- MIC without PB/MIC + PB [9]: 2
- MBC [10]: 4 µg/mL (≈ 11.1 µM)
- MIC without PB/MIC + PB [11]: 2
- MBC [12]: 16 µg/mL (≈ 44.3 µM)
- MBC [13]: 4 µg/mL (≈ 11.1 µM)
- MIC without PB/MIC + PB ([14]; +0.06 μg/ml PB, 2nd experiment): 1
- MIC without PB/MIC + PB [14, 22]: 1
- MIC without PB/MIC + PB [15]: 1
- MIC without PB/MIC + PB ([16]; +0.06 μg/ml PB, 2nd experiment): 1
- MIC without PB/MIC + PB [16, 22]: 1
- MIC without PB/MIC + PB ([17]; +[…] PB, 2nd experiment): 4
- MIC without PB/MIC + PB ([17]; ratio, PB […], 1st experiment): 2
- MIC ([17]; A489, A. baumannii A489, +[…] PB, 2nd experiment, read-out: MIC): 8 µg/mL (≈ 22.1 µM)
- MIC ([17]; A489, read-out: MIC +[…] PB, A. baumannii A489, +[…] polymyxin B, 1st experiment): 8 µg/mL (≈ 22.1 µM)
- MBC [18]: 16.00 µg/mL (≈ 44.3 µM)
- MBC [19]: 4 µg/mL (≈ 11.1 µM)
- MIC without PB/MIC + PB [20]: 0.5
- MBC [21]: 8 µg/mL (≈ 22.1 µM)
